The structures appear in SMILES notation. ≈ marks a conversion by molar mass, not a printed value. Where “and” joins values, the source holds several entries; their conditions need not be identical. Equal values may be shown once.

Data set [1] concerns SARS-CoV-2. Nature of the data set: microbe, parasite or virus in culture. In kind it is cell-based.
The subject of data set [2] is Vero E6 cells.

Regarding `O=C1CN(/N=C/c2ccc(-c3ccc([N+](=O)[O-])cc3)o2)C(O)=N1` [dantrolene], in data set [1], the “Day 2 Read (CPE)” value was 3/3 wells had No CPE and 3/3 wells had > 90% CPE and 3/3 wells had sparse; the “Day 4 Read (CPE)” value is 3/3 wells had No CPE and 2/3 wells had > 90% CPE and 1/3 wells had > 90% CPE and 3/3 wells had > 90% CPE and 3/3 wells had sparse; the “Day 6 Read (CPE)” value was 3/3 wells had No CPE and 2/3 wells had > 90% CPE and 1/3 wells had > 90% CPE and 3/3 wells had > 90% CPE and 3/3 wells had sparse. The MIC in data set [1] (Severe acute respiratory syndrome coronavirus 2, read-out: minimum inhibitory concentration) amounted to 20 µM (≈ 6.29 µg/mL). Besides, the “cell viability of uninfected Vero E6 cells” value in data set [2] is on record as “good cell viability”.

The values above are taken from patent US12582633B2 (priority 2020, dated 2026).
